Common to all, as to test: biochemical
Format in all cases: binding

In test [1] the target is A*6802 (Homo sapiens, UniProt P04439, A269V/D140Y/D185E/E176V/E277Q/E87N/F33Y/G231S/I121R/I166T/I218V/L180W/L300P/L318F/N151K/P208A/P217A/Q86R/R138H/R169H/S129P/T345S/V36M).
For test [2], the target named is HLA-A*0201 (HLA-A2.1) (Homo sapiens, UniProt P04439, D140Y/D185E/D98H/E176V/E277Q/G131W/G231S/I119V/I121R/I166T/I218V/L300P/L318F/N151K/N90K/P208A/P217A/Q86G/Q94H/R138H/R169H/T345S).
The target in test [3] is A*0206 (Homo sapiens, UniProt P04439, D140Y/D185E/D98H/E176V/E277Q/F33Y/G131W/G231S/I119V/I121R/I166T/I218V/L300P/L318F/N151K/N90K/P208A/P217A/Q86G/Q94H/R138H/R169H/T345S).
The target in test [4] is A*0202 (Homo sapiens, UniProt P04439, D140Y/D185E/D98H/E176V/E277Q/G131W/G231S/I119L/I121R/I166T/I218V/L180W/L300P/L318F/N151K/N90K/P208A/P217A/Q67R/Q86G/Q94H/R138H/R169H/T345S).
In test [5] the target is A*0203 (Homo sapiens, UniProt P04439, A173T/D140Y/D185E/D98H/E277Q/G131W/G231S/I119V/I121R/I166T/I218V/L180W/L300P/L318F/N151K/N90K/P208A/P217A/Q86G/Q94H/R138H/R169H/T345S).

The values that follow come from patent US9340577B2, “HLA binding motifs and peptides and their uses” (priority 1992, dated 2016).

The term IC50 denotes the concentration that gives 50% inhibition.

No end group written: not given here.

With FIQGAVISFV [Peptide 1578.12], the half-maximal inhibitory concentration (IC50) worked out at 394 nM in test [1]; 255 nM in test [2]; 345 nM in test [3]; 12 nM in test [4]; 18 nM in test [5].
For the sequence FLGALKSFV [Peptide 1593.56], the IC50 was determined as 822 nM in test [1]; 93 nM in test [2]; 79 nM in test [3]; 1.1 nM in test [4]; 1.1 nM in test [5].
Take FLQGAIISFV [Peptide 1578.27]: the IC50 amounted to 86 nM in test [1]; 45 nM in test [2]; 69 nM in test [3]; 0.65 nM in test [4]; 6.6 nM in test [5].
For FLQGSVICFV [Peptide 1578.05], the IC50 in test [1] was 380 nM; in test [2], 41 nM; in test [3], 73 nM; in test [4], 3.5 nM; in test [5], 9.1 nM.
Regarding FLQSTQELFI [Peptide 9013.0179], the IC50 in test [1] was over 20000 nM; in test [2] it was 95 nM; in test [3] it was 1110 nM; in test [4], 3.7 nM; in test [5] it was 59 nM.
Turning to FLSALKLFL [Peptide 1578.17], the IC50 is 2150 nM in test [1]; 17 nM in test [2]; 45 nM in test [3]; 2.8 nM in test [4]; 11 nM in test [5].
Turning to FLSGCVISYV [Peptide 1578.32], the IC50 in test [1] came out at 102 nM; in test [2], 43 nM; in test [3] it was 67 nM; in test [4] it was 2.7 nM; in test [5] it was 7.4 nM.
The matching figures for FLSHVKIPV [Peptide 1578.55]: 60 nM, 41 nM, 91 nM, 4 nM and 9.8 nM.
Take FLSYFKLFL [Peptide 1578.37]: the IC50 turned out to be 4750 nM in test [1]; 30 nM in test [2]; 45 nM in test [3]; 2.1 nM in test [4]; 8.6 nM in test [5].
Take FLVAFKQFL [Peptide 1578.42]: the half-inhibitory concentration (IC50) in test [1] is 1400 nM; in test [2], 55 nM; in test [3], 81 nM; in test [4], 0.43 nM; in test [5], 4.7 nM.
With FQFQNPFPL [Peptide 1578.40], the half-inhibitory concentration (IC50) in test [1] is 3160 nM; in test [2] it was 8.4 nM; in test [3], 6.3 nM; in test [4] it was 0.75 nM; in test [5] it was 3.5 nM.
As for FQGSVISFV [Peptide 1578.38], the 50% inhibitory concentration (IC50) was determined as 564 nM in test [1]; 15 nM in test [2]; 13 nM in test [3]; 1.8 nM in test [4]; 1.8 nM in test [5].
With FQKYKTLFV [Peptide 1578.54], the IC50 is over 20000 nM in test [1]; 1140 nM in test [2]; 419 nM in test [3]; 821 nM in test [4]; 30 nM in test [5].
For the sequence FQYAQLADV [Peptide 1578.36], the half-maximal inhibitory concentration (IC50) in test [1] was determined as 16900 nM; in test [2], 42 nM; in test [3], 32 nM; in test [4], 3.7 nM; in test [5], 12 nM.
Turning to GLFQQSTQEL [Peptide 9013.0176], the IC50 in test [1] was over 20000 nM; in test [2], 1360 nM; in test [3], over 20000 nM; in test [4], 6.2 nM; in test [5] it was 48 nM.
As to GLFRVYPEL [Peptide 9013.0039], the IC50 was over 20000 nM in test [1]; 43 nM in test [2]; 1420 nM in test [3]; 13 nM in test [4]; 229 nM in test [5].
GLNRTTVTV [Peptide 9013.0066]: the half-inhibitory concentration (IC50) in test [1] was over 20000 nM; in test [2], 109 nM; in test [3] it was 4730 nM; in test [4] it was 10 nM; in test [5] it was 3.8 nM.
